Test results as given in publication PMC6060383, “Synthesis and pharmacological evaluation of novel isoquinoline N-sulphonylhydrazones designed as ROCK inhibitors” (Journal of Enzyme Inhibition and Medicinal Chemistry, 2018).

How the values were obtained:
[1] = test system: MDA-MB 231 cells; assay: Plasma membrane integrity assay (LDH); assay type: cell-based, human; conditions: 0.1 to 30 µM, 24 and 48 h
Experimental: The human mammary gland/breast epithelial cell line MDA-MB 231 was obtained from the American Type Culture Collection (ATCC® HTB-26™) and this use was approved by the Ethics Committee for Animal Care and Use in Scientific Research from the Federal University of Rio de Janeiro. Cells were routinely grown in RPMI medium containing 10% foetal bovine serum (FBS), 1% L-glutamine and 1% penicillin-streptomycin, in a humidified 5% CO2 atmosphere at 37 °C. Cells were cultured up to 70–100% confluence and then some cultures were treated with the compounds at different concentrations for 24 or 48 h. All cell culture reagents were purchased from Invitrogen (São Paulo, Brazil).
To measure plasma membrane integrity, we assayed serum lactate dehydrogenase (LDH) levels and calculated percentages of LDH release to the medium. LDH activity was measured spectrophotometrically using a commercial kit (Doles, Goiás, Brazil). […] Then, 10 μl of NAD were added and absorbance intensities were measured in a microplate reader (FlexStation® 3 Reader, Molecular Devices) at 490 nm. The percentage of LDH release was calculated by ([LDH] sample ×100)/total [LDH]. […]
We also analysed the plasma membrane integrity by measuring the serum lactate dehydrogenase (LDH) levels in the culture medium to confirm the cell viability data. […]

[2] = Chemical stability study (pH 2.0 and pH 7.4 buffers); assay type: physicochemical; conditions: 37 °C
Experimental: Two microliters ([…]) of a concentrated solution of the compound under examination (40 mM stock solution solubilized in DMSO) and 248 μL of acid (0.2 M potassium chloride and 0.2 M HCl; pH 2.0) or neutral (phosphate dibasic, pH 7.4) buffer were added to a 2 ml Eppendorf microtube. After vortexing, the mixture was placed in a water bath at 37 °C under vigorous stirring for 0, 30, 60, 120, and 240 min. After each reaction, 248 μL of basic buffer (phosphate buffer, pH 8.4) was added to neutralize the pH of the medium in the experiments using acidic buffer. The compound was extracted using 1 ml of acetonitrile followed by vigorous vortexing and freezing of the aqueous phase (−10 °C). The organic phase was separated, filtered, and analysed using an HPLC-PDA (acetonitrile/water […], 0.05% of TFA).
Due to the possible chemical instability of the imine functional group present in the N-sulphonylhydrazone framework, the stability profiles of compounds 5b (LASSBio-2020) and 11 (LASSBio-2065) were determined. The study was conducted under two conditions, pH 2.0 and pH 7.4, to mimic the acidic stomach and the neutral plasma environments, respectively. The compounds were examined in the presence of acid (pH 2) and neutral (pH 7.4) buffers with stirring for 240 min at a controlled temperature (37 °C).

recovery percentage under acidic conditions ([2]; pH 2, after 30 min of incubation): 64%
degradation in neutral medium ([2]; pH 7.4, after 4 h): less than 20%
SMILES: O=S(=O)(N/N=C/c1ccccc1)c1cccc2cnccc12 [Compound 5b, (E)-N′-benzylideneisoquinoline-5-sulphonohydrazide]
LDH levels in culture medium / cytotoxicity in LDH assay (result in words) [1]: not altered
